Measured values: patent US4741899A, “Process for arresting the proliferation of organisms that convert axillary secretions to malodorous materials” (Bristol-Myers Company, priority 1983, dated 1988)
Where a name gives a salt, the structure may show the parent alone.

Legend:
Diphth (Axilla) = assay: In vitro minimum inhibitory (bactericidal) concentration, Diphth (Axilla); assay type: cell-based, aerobic diphtheroids (corynebacteria); conditions: 24 hrs. at 35° C., subculture further 24 hrs.; liquid culture medium
Experimental: (§1) To test the activity of the compounds employed in the present invention in arresting the proliferation of axillary organisms (e.g. corynebacteria and staphylococci) the following in vitro study was carried out:
(§2) Aqueous solutions (or suspensions) were prepared for each test substance. Serial two-fold dilutions of the above were then made in liquid culture medium. Each tube (10 ml of liquid) in the dilution series was inoculated with 0.2 ml of a 1:500 dilution of 24 hr. culture of bacteria. After 24 hrs. at 35° C., tubes showing turbidity (growth) were noted. All non-turbid dilutions were subcultured to liquid growth medium and incubated an additional 24 hrs. at 35° C. The lowest concentration of substance which yielded no growth upon subculture was noted as the minimum inhibitory (bactericidal) concentration (=MIC).
(§3) The numbers appearing in columns 2 and 3 give the minimum inhibitory concentration in percent (MIC %) for the materials tested i.e. the minimum concentration in percent of the agent tested which will inhibit the proliferation of the test organisms. The entries in the last column are judgments with respect to the activity of the agent tested.

Staph (Axilla) = assay: In vitro minimum inhibitory (bactericidal) concentration, Staph (Axilla); assay type: cell-based, staphylococci; conditions: 24 hrs. at 35° C., subculture further 24 hrs.; liquid culture medium
Experimental: as §1, §2, §3

[1] = test system: axillary organisms (e.g. corynebacteria and staphylococci); assay: In vitro Studies - Summary, judgment of activity against axillary organisms; assay type: cell-based; conditions: Staph and Diphth (Axilla)
Experimental: as §1, §2, §3

For `CC(CNC1CCCCC1)OC(=O)c1ccccc1` (stereo not drawn) [Hexylcaine HCl], the “MIC (%) - cidal, Diphth (Axilla)” value (Diphth (Axilla)) was 0.16% and the “MIC (%) - cidal, Staph (Axilla)” value (Staph (Axilla)) was 0.16%.
In the case of `c1ccc2c(CC3=NCCN3)cccc2c1` [Naphazoline HCl], the “MIC (%) - cidal, Diphth (Axilla)” value (Diphth (Axilla)) is reported as 0.31% and the “MIC (%) - cidal, Staph (Axilla)” value (Staph (Axilla)) is reported as 0.31%.
With `CN1CCC2=C(C1)C(c1ccccc1)c1ccccc12` (stereo not drawn) [Phenindamine tartrate] the “Comments (judgment with respect to the activity of the agent tested)” value [1] was “Good Activity”, the “MIC (%) - cidal, Diphth (Axilla)” value (Diphth (Axilla)) was 0.08% and the “MIC (%) - cidal, Staph (Axilla)” value (Staph (Axilla)) was 0.04%.
In the case of `COc1ccc(CN(CCN(C)C)c2ccccn2)cc1` [Pyrilamine maleate], the “MIC (%) - cidal, Diphth (Axilla)” value (Diphth (Axilla)) is reported as 0.63% and the “MIC (%) - cidal, Staph (Axilla)” value (Staph (Axilla)) is reported as 0.63%.
In the case of `CCCCNc1ccc(C(=O)OCCN(C)C)cc1` [Tetracaine HCl], the “MIC (%) - cidal, Diphth (Axilla)” value (Diphth (Axilla)) is reported as 0.08% and the “MIC (%) - cidal, Staph (Axilla)” value (Staph (Axilla)) is reported as 0.08%.
For `CN(C)CCN(Cc1ccccc1)c1ccccn1` [Tripelennamine HCl], the “MIC (%) - cidal, Diphth (Axilla)” value (Diphth (Axilla)) was 0.31% and the “MIC (%) - cidal, Staph (Axilla)” value (Staph (Axilla)) was 0.63%.
For `Cc1cc(C(C)(C)C)cc(C)c1CC1=NCCN1` [Xylometazoline HCl], the “MIC (%) - cidal, Diphth (Axilla)” value (Diphth (Axilla)) was 0.04% and the “MIC (%) - cidal, Staph (Axilla)” value (Staph (Axilla)) was 0.08%.
